Bounds are passed on as bounds.

Experiment [1] deals with IL3000 T. congolense (drug sensitive) strain. Kind of experiment: In vitro Alamar Blue 72 h drug sensitivity assay for T. congolense. Conditions: Trypanosoma congolense, 72 h, bloodstream form, 69 h + 3 h Resazurin, 34° C., read-out: IC50: I Org. Growth T. congolense 3 d. It is filed as cell-based, Trypanosoma congolense. In a few lines:
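Bloodstream-form trypanosomes in HMI medium with 20% bovine serum were exposed to compounds for 69 h at 34° C, 5% CO2, then resazurin for another 3 h. Fluorescence read at ex 536/em 588 nm; IC50 from 11-point sigmoidal dose-response curves, at least three independent runs.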

The test system of experiment [2] is T. cruzi amastigote (Td Tomato-modified) in Vero cells. Kind of experiment: In vitro IC50 measurement of T. cruzi amastigote killing using Td Tomato-modified T. cruzi. It is filed as cell-based. As to conditions: Trypanosoma cruzi, 72 h, fluorescence, read-out: IC50: I Org. amastigote Growth T. cruzi 3 d. In a few lines:
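Vero cells infected with Td Tomato-expressing T. cruzi, treated with compound at 5 uM to 5 nM final, incubated 72 h at 37 °C. Fluorescence (Ex 544/Em 612 nm) read at Day 0 and Day 3, Day 0 subtracted; IC50 and IC90 by nonlinear regression.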

In the case of `CC(C)(C)[C@H](NC(=O)c1ccc2c(c1)B(O)OC2)C(=O)OCc1ccccc1` [Example 6-017, Benzyl (S)-2-(1-hydroxy-1,3-dihydrobenzo[c][1,2]oxaborole-6-carboxamido)-3,3-dimethylbutanoate], the IC50 (usually the concentration that gives 50% inhibition) is 10 to 5000 nM in experiment [1] and at least 1000 nM in experiment [2].

For `Cc1c(C(=O)N[C@H](C(=O)OCC(F)(F)C(F)(F)F)C(C)C)ccc2c1B(O)OC2` [Example 6-153, 2,2,3,3,3-Pentafluoropropyl (1-hydroxy-7-methyl-1,3-dihydrobenzo[c][1,2]oxaborole-6-carbonyl)-L-valinate], the 50% inhibitory concentration (IC50) was below 0.5 nM in experiment [1] and at most 20 nM in experiment [2].

As for `Cc1c(C(=O)N[C@H](C(=O)OCCN2CC3(COC3)C2)C(C)C)ccc2c1B(O)OC2` [Example 6-218, 2-(2-oxa-6-azaspiro[3.3]heptan-6-yl)ethyl (1-hydroxy-7-methyl-1,3-dihydrobenzo[c][1,2]oxaborole-6-carbonyl)-L-valinate], the IC50 is 10 to 5000 nM in experiment [1] and at least 1000 nM in experiment [2].

Turning to `Cc1c(C(=O)N[C@H](C(=O)OCc2cccc(CN3CCCC3)c2)C(C)C)ccc2c1B(O)OC2` [Example 6-113, 3-(Pyrrolidin-1-ylmethyl)benzyl (1-hydroxy-7-methyl-1,3-dihydrobenzo[c][1,2]oxaborole-6-carbonyl)-L-valinate], the IC50 in experiment [1] is below 0.5 nM; in experiment [2], at most 20 nM.

With `Cc1c(C(=O)N[C@H](C(=O)OCc2ccc(C(F)(F)F)cn2)C(C)C)ccc2c1B(O)OC2` [Example 6-171, (5-(trifluoromethyl)pyridin-2-yl)methyl (1-hydroxy-7-methyl-1,3-dihydrobenzo[c][1,2]oxaborole-6-carbonyl)-L-valinate], the IC50 was below 0.5 nM in experiment [1] and at most 20 nM in experiment [2].

As for `Cc1c(C(=O)N[C@H](C(=O)OCc2nccc(C(F)(F)F)n2)C(C)C)ccc2c1B(O)OC2` [Example 6-203, (4-(trifluoromethyl)pyrimidin-2-yl)methyl (1-hydroxy-7-methyl-1,3-dihydrobenzo[c][1,2]oxaborole-6-carbonyl)-L-valinate], the IC50 was below 0.5 nM in experiment [1] and at most 20 nM in experiment [2].

Turning to `Cc1c(C(=O)N[C@@H](C(=O)OCc2ccc(F)cc2)C(C)C)ccc2c1B(O)OC2` [Example 6-087, 4-Fluorobenzyl (1-hydroxy-7-methyl-1,3-dihydrobenzo[c][1,2]oxaborole-6-carbonyl)-D-valinate], the IC50 was 10 to 5000 nM in experiment [1] and at least 1000 nM in experiment [2].

On to `Cc1c(C(=O)N[C@H](C(=O)OCc2ncc3ccccc3n2)C(C)C)ccc2c1B(O)OC2` [Example 6-137, Quinazolin-2-ylmethyl (1-hydroxy-7-methyl-1,3-dihydrobenzo[c][1,2]oxaborole-6-carbonyl)-L-valinate], for which the figures for the half-inhibitory concentration (IC50) in experiment [1] and in experiment [2] were below 0.5 nM and at most 20 nM, respectively.

On to `Cc1c(C(=O)N[C@H](C(=O)OC[C@H]2CCCO2)C(C)C)ccc2c1B(O)OC2` [Example 6-215, ((R)-tetrahydrofuran-2-yl)methyl (1-hydroxy-7-methyl-1,3-dihydrobenzo[c][1,2]oxaborole-6-carbonyl)-L-valinate], for which the IC50 is below 0.5 nM in experiment [1] and at most 20 nM in experiment [2].

Take `Cc1c(C(=O)N[C@H](C(=O)OC(C)C)C(C)C)ccc2c1B(O)OC2` [Example 6-112, Isopropyl (1-hydroxy-7-methyl-1,3-dihydrobenzo[c][1,2]oxaborole-6-carbonyl)-L-valinate]: the figures for the IC50 in experiment [1] and in experiment [2] were 0.51 to 9.99 nM and at most 20 nM, respectively.

On to `Cc1c(C(=O)N[C@H](C(=O)OCc2ccc(F)cc2)C(C)C)ccc2c1B(O)OC2` [Example 6-165, 4-Fluorobenzyl (1-hydroxy-7-methyl-1,3-dihydrobenzo[c][1,2]oxaborole-6-carbonyl)-L-valinate], for which the IC50 was below 0.5 nM in experiment [1] and at most 20 nM in experiment [2].

Regarding `Cc1c(C(=O)N[C@H](C(=O)OCC2CCN(C)CC2)C(C)C)ccc2c1B(O)OC2` [Example 6-114, (1-Methylpiperidin-4-yl)methyl (1-hydroxy-7-methyl-1,3-dihydrobenzo[c][1,2]oxaborole-6-carbonyl)-L-valinate], the IC50 in experiment [1] was 0.51 to 9.99 nM; in experiment [2], 21 to 999 nM.

Turning to `O=C(N[C@@H](Cc1ccccc1)C(=O)OCc1ccccc1)c1ccc2c(c1)B(O)OC2` [Example 6-009, Benzyl (1-hydroxy-1,3-dihydrobenzo[c][1,2]oxaborole-6-carbonyl)-L-phenylalaninate], the IC50 is 0.51 to 9.99 nM in experiment [1] and at least 1000 nM in experiment [2].

`Cc1c(C(=O)N[C@H](C(=O)OCCCN2CCOCC2)C(C)C)ccc2c1B(O)OC2` [Example 6-208, 3-morpholinopropyl (1-hydroxy-7-methyl-1,3-dihydrobenzo[c][1,2]oxaborole-6-carbonyl)-L-valinate]: the values for the IC50 in experiment [1] and in experiment [2] were 0.51 to 9.99 nM and 21 to 999 nM, respectively.

In the case of `CCc1c(C(=O)N[C@H](C(=O)OCc2ccc(S(C)(=O)=O)cc2)C(C)C)ccc2c1B(O)OC2` [Example 6-076, 4-(Methylsulfonyl)benzyl (7-ethyl-1-hydroxy-1,3-dihydrobenzo[c][1,2]oxaborole-6-carbonyl)-L-valinate], the values for the IC50 in experiment [1] and in experiment [2] were 0.51 to 9.99 nM and 21 to 999 nM, respectively.

In the case of `Cc1c(C(=O)N[C@H](C(=O)OCc2ccc(F)cc2)[C@@H](C)OCc2ccccc2)ccc2c1B(O)OC2` [Example 6-077, 4-Fluorobenzyl O-benzyl-N-(1-hydroxy-7-methyl-1,3-dihydrobenzo[c][1,2]oxaborole-6-carbonyl)-L-threoninate], the IC50 in experiment [1] is 0.51 to 9.99 nM; in experiment [2] it was at most 20 nM.

For the molecule `Cc1c(C(=O)N[C@H](C(=O)OCC2COCCOC2)C(C)C)ccc2c1B(O)OC2` [Example 6-157, (1,4-Dioxepan-6-yl)methyl (1-hydroxy-7-methyl-1,3-dihydrobenzo[c][1,2]oxaborole-6-carbonyl)-L-valinate], the IC50 in experiment [1] is below 0.5 nM; in experiment [2], 21 to 999 nM.

Take `Cc1c(C(=O)N[C@H](C(=O)OCc2cc(F)c(F)c(F)c2)C(C)(C)O)ccc2c1B(O)OC2` [Example 6-101, 3,4,5-Trifluorobenzyl(S)-3-hydroxy-2-(1-hydroxy-7-methyl-1,3-dihydrobenzo[c][1,2]oxaborole-6-carboxamido)-3-methylbutanoate]: the IC50 is below 0.5 nM in experiment [1] and at most 20 nM in experiment [2].

Turning to `Cc1c(C(=O)N[C@H](C(=O)OCc2ccc(S(C)(=O)=O)cc2)C(C)C)ccc2c1B(O)OC2` [Example 6-056, 4-(Methylsulfonyl)benzyl (1-hydroxy-7-methyl-1,3-dihydrobenzo[c][1,2]oxaborole-6-carbonyl)-L-valinate], the IC50 in experiment [1] is 0.51 to 9.99 nM; in experiment [2] it was 21 to 999 nM.

Consider `Cc1c(C(=O)NC(C(=O)OCc2ccc(F)cc2)C(C)(C)F)ccc2c1B(O)OC2` (stereo not drawn) [Example 6-091, 4-Fluorobenzyl 3-fluoro-2-(1-hydroxy-7-methyl-1,3-dihydrobenzo[c][1,2]oxaborole-6-carboxamido)-3-methylbutanoate], for which the values for the IC50 in experiment [1] and in experiment [2] were below 0.5 nM and at most 20 nM, respectively.

Consider `COCN(COC)S(=O)(=O)c1ccc(COC(=O)[C@@H](NC(=O)c2ccc3c(c2C)B(O)OC3)C(C)C)cc1` [Example 6-109, 4-(N,N-bis(methoxymethyl)sulfamoyl)benzyl (1-hydroxy-7-methyl-1,3-dihydrobenzo[c][1,2]oxaborole-6-carbonyl)-L-valinate], for which the values for the IC50 in experiment [1] and in experiment [2] were 0.51 to 9.99 nM and 21 to 999 nM, respectively.

Values taken from patent US11578087B2, “Oxaborole esters and uses thereof” (priority 2016, dated 2023).
